The record followed here is patent publication US6476263B1, “Compounds for inhibiting β-amyloid peptide release and/or its synthesis” (Elan Pharmaceuticals, Inc., priority 1996, dated 2002).

Residues, ends and D or L forms follow the SMILES beside them. *: point of attachment. PhAc = O=C(Cc1ccccc1)*; Boc = CC(C)(C)OC(=O)*

For `COC(=O)[C@H](NC(=O)[C@H](C)NC(=O)Cc1cc(F)cc(F)c1)c1cccs1` [Example 178, Methyl N-[N-(3,5-Difluorophenylacetyl)-L-alaninyl]-(S)-2-amino-2-(2-thienyl)acetate], the melting point (commonly the temperature of the solid-liquid transition) was 180 to 181 °C.
`C[C@H](NC(=O)Cc1cc(F)cc(F)c1)C(=O)N[C@@H](C(=O)OC(C)(C)C)c1cccs1` [Example 179, tert-Butyl N-[N-(3,5-Difluorophenylacetyl)-L-alaninyl]-(S)-2-amino-2-(2-thienyl)acetate]: the melting point lay in the range of 117 to 118 °C.
In the case of `COC(=O)[C@@H](NC(=O)[C@H](C)NC(=O)Cc1cc(F)cc(F)c1)c1ccc2cc(OC)ccc2c1` [Example 182, Methyl N-[N-(3,5-Difluorophenylacetyl)-L-alaninyl]-(S)-2-amino-2-(6-methoxy-2-naphthyl)acetate] it was 177 to 178 °C; in that of `COC(=O)C(NC(=O)[C@H](C)NC(=O)Cc1cc(F)cc(F)c1)c1cccc(C(F)(F)F)c1` (stereo partly drawn) [Example 183, Methyl N-[N-(3,5-Difluorophenylacetyl)-L-alaninyl]-2-amino-2-(3-trifluoromethylphenyl)acetate], 133 to 134 °C; in that of `C[C@H](NC(=O)CC1CC1)C(=O)N[C@H](C(=O)OC(C)(C)C)c1ccccc1` [Example 189, N-[N-(Cyclopropylacetyl)-L-alaninyl]-L-phenylglycine tert-Butyl Ester], 105 to 107 °C.
On to `CC[C@H](NC(=O)Cc1cc(F)cc(F)c1)C(=O)N[C@H](C(=O)OC(C)(C)C)c1ccccc1` [Example 191, N-[N-(3,5-Difluorophenylacetyl)-(S)-2-aminobutanoyl]-L-phenylglycine tert-Butyl Ester], for which the melting point fell in the range of 138.7 to 140 °C.
Regarding `CC(C)[C@H](NC(=O)Cc1cc(F)cc(F)c1)C(=O)N[C@H](C(=O)OC(C)(C)C)c1ccccc1` [Example 192, N-[N-(3,5-Difluorophenylacetyl)-L-valinyl]-L-phenylglycine tert-Butyl Ester], the melting point was in the range of 170.5 to 171.8 °C.
For `COC(=O)[C@@H](NC(=O)[C@H](CCSC)NC(=O)Cc1cc(F)cc(F)c1)c1ccccc1` [Example 193, N-[N-(3,5-Difluorophenylacetyl)-L-methioninyl]-L-phenylglycine Methyl Ester] the value was 189.3 °C; for `COC(=O)[C@@H](NC(=O)[C@@H](NC(=O)Cc1cc(F)cc(F)c1)C(C)C)c1ccccc1` [Example 194, N-[N-(3,5-Difluorophenylacetyl)-L-valinyl]-L-phenylglycine Methyl Ester], 226.5 °C; for `COC(=O)[C@@H](NC(=O)[C@H](CC(C)C)NC(=O)Cc1cc(F)cc(F)c1)c1ccccc1` [Example 196, N-[N-(3,5-Difluorophenylacetyl)-L-leucinyl]-L-phenylglycine Methyl Ester], 178.4 °C.
In turn, `COC(=O)[C@@H](NC(=O)[C@H](Cc1ccccc1)NC(=O)Cc1cc(F)cc(F)c1)c1ccccc1` [Example 197, N-[N-(3,5-Difluorophenylacetyl)-L-phenylalaninyl]-L-phenylglycine Methyl Ester] returned a melting point of 188.3 °C.
For `COC(=O)[C@@H](NC(=O)CNC(=O)Cc1cc(F)cc(F)c1)c1ccccc1` [Example 198, N-[N-(3,5-Difluorophenylacetyl)glycinyl]-L-phenylglycine Methyl Ester] the value was 142.3 °C; for `COC(=O)[C@@H](NC(=O)[C@@H](NC(=O)Cc1cc(F)cc(F)c1)c1ccccc1)c1ccccc1` [Example 199, N-[N-(3,5-Difluorophenylacetyl)-L-phenylglycinyl]-L-phenylglycine Methyl Ester], 222.8 °C.
`COC(=O)[C@H](C)NC(=O)[C@H](C)NC(=O)Cc1ccccc1` [Example 200, N-[N-(Phenylacetyl)-L-alaninyl]-L-alanine Methyl Ester] (HELM PEPTIDE1{[O=C(Cc1ccccc1)[*:2]].A.A.[CO[*:1]]}$$$$V2.0) registered a melting point of 140.5 to 142 °C.
The molecule `COC(=O)[C@H](CC(C)C)NC(=O)[C@H](C)NC(=O)Cc1ccccc1` [Example 201, N-[N-(Phenylacetyl)-L-alaninyl]-L-leucine Methyl Ester] (HELM PEPTIDE1{[O=C(Cc1ccccc1)[*:2]].A.L.[CO[*:1]]}$$$$V2.0) came in with a melting point of 102.5 to 105 °C.
The molecule `COC(=O)[C@H](Cc1ccccc1)NC(=O)[C@H](C)NC(=O)Cc1ccccc1` [Example 204, N-[N-(Phenylacetyl)-L-alaninyl]-L-phenylalanine Methyl Ester] registered a melting point of 148 to 149.5 °C.
Molecule `COC(=O)[C@H](CCCCNC(=O)OC(C)(C)C)NC(=O)[C@H](C)NC(=O)Cc1ccccc1` [Example 205, N-[N-(Phenylacetyl)-L-alaninyl]-Nε-(tert-butoxycarbonyl)-L-lysine Methyl Ester] (PhAc-Ala-Lys(Boc)-OMe) yielded a melting point of 119 to 121 °C.
Take `COC(=O)CNC(=O)[C@H](C)NC(=O)Cc1ccccc1` [Example 206, N-[N-(Phenylacetyl)-L-alaninyl]glycine Methyl Ester] (HELM PEPTIDE1{[O=C(Cc1ccccc1)[*:2]].A.G.[CO[*:1]]}$$$$V2.0): the melting point was 152 to 153.5 °C.
Regarding `COC(=O)[C@@H](NC(=O)[C@H](C)NC(=O)Cc1ccccc1)C(C)C` [Example 207, N-[N-(Phenylacetyl)-L-alaninyl]-L-valine Methyl Ester] (HELM PEPTIDE1{[O=C(Cc1ccccc1)[*:2]].A.V.[CO[*:1]]}$$$$V2.0), the melting point lay in the range of 112 to 115 °C.
For the molecule `CC[C@H](NC(=O)[C@H](C)NC(=O)Cc1ccccc1)C(=O)OC` [Example 208, Methyl N-[N-(Phenylacetyl)-L-alaninyl]-2-(S)-aminobutanoate] (HELM PEPTIDE1{[O=C(Cc1ccccc1)[*:2]].A.[Abu].[CO[*:1]]}$$$$V2.0), the melting point is 120 °C.
For `CCC[C@H](NC(=O)[C@H](C)NC(=O)Cc1ccccc1)C(=O)OC` [Example 209, Methyl N-[N-(Phenylacetyl)-L-alaninyl]-2-(S)-aminopentanoate] (HELM PEPTIDE1{[O=C(Cc1ccccc1)[*:2]].A.[Nva].[CO[*:1]]}$$$$V2.0), the melting point was 135 to 137 °C.
In the case of `COC(=O)C1CCCCN1C(=O)[C@H](C)NC(=O)Cc1cc(F)cc(F)c1` (stereo partly drawn) [Example 218, Methyl 1-[N-(3,5-Difluorophenylacetyl)-L-alaninyl]piperidine-2-carboxylate] it was 114 to 118 °C.
For the molecule `COC(=O)[C@@H](NC(=O)CC1CCCC[C@@H]1NC(=O)Cc1cc(F)cc(F)c1)c1ccccc1` (stereo partly drawn) [Example 225, N-[N-(3,5-Difluorophenylacetyl)-2-(S)-aminocyclohexylacetyl]-L-phenylglycine Methyl Ester], the melting point is 234.4 °C.
For `O=C(Cc1cc(F)cc(F)c1)N[C@H](C(=O)N[C@H](CO)c1ccccc1)c1ccccc1` [Example 245, N-[N-(3,5-Difluorophenylacetyl)-L-phenylglycinyl]-L-phenylglycinol] the value was 231.4 °C; for `O=C(CC1CC1)N[C@H](C(=O)N[C@H](CO)c1ccccc1)c1ccccc1` [Example 246, N-[N-(Cyclopropaneacetyl)-L-phenylglycinyl]-L-phenylglycinol], 202.5 °C.
